Key:
[1] = biological target: T1, mGluR5 (Rattus norvegicus, UniProt P31424); test: mGluR5 binding assay ([3H]-MPEP radioligand competition); conditions: competition with 3 nM [3H]-MPEP, rat brain cortical membranes, 1 h at 4 °C; mean of at least three independent experiments in duplicate
T1 construct: tissue Charles River Laboratories; host or cells: rat brain cortex membranes (Sprague-Dawley)
How it was run: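 Rat cortical membranes (50 μg) were incubated 1 h at 4 °C with 3 nM [3H]-MPEP and compound (0.003 nM-30 μM, 8 points) in HEPES buffer pH 7.4 with Mg2+, Ca2+ and NaCl. 30 μM MPEP defined non-specific binding, and bound label was counted after filtration. IC50 came from non-linear regression, as the mean of ≥3 experiments run in duplicate.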

T1 sequence (P31424 21-1203): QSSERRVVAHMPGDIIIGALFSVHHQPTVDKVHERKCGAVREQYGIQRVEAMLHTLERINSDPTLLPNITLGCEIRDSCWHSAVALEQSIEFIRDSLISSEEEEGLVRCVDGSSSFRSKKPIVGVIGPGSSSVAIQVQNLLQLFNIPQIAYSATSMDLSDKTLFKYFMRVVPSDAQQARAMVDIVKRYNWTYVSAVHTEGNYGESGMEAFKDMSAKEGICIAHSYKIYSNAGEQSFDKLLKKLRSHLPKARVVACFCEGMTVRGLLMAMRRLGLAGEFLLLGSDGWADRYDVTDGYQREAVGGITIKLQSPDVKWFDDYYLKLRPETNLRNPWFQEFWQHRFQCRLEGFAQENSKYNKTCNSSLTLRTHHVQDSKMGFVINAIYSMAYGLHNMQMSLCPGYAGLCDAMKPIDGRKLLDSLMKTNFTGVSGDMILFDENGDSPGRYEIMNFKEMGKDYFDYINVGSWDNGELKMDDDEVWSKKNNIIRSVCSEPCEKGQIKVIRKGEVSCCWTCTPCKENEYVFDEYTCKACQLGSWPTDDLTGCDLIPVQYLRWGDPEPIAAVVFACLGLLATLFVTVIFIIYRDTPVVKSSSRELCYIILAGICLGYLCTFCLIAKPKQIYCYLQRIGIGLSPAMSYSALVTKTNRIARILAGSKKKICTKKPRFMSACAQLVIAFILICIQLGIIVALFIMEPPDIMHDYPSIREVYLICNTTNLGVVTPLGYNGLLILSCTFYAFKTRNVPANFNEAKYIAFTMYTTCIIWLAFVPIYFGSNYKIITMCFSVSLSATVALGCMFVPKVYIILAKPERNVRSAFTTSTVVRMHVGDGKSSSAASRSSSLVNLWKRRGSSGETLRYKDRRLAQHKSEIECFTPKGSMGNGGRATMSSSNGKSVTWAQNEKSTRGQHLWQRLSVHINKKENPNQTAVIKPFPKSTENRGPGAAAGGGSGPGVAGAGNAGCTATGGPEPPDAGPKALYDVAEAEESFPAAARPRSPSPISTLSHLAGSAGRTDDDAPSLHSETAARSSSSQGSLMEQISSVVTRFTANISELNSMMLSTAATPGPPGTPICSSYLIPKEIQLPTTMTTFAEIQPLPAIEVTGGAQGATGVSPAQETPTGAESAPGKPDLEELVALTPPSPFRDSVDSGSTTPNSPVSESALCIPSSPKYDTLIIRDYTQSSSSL

## Cc1ccc(F)cc1-c1noc(CCC#Cc2ccccn2)n1 [Example 59, 2-(4-(3-(5-Fluoro-2-methylphenyl)-1,2,4-oxadiazol-5-yl)but-1-ynyl)pyridine]
[1]
  IC50: < 10 µM
other
  melting point: 90 to 91 °C

## Cc1ccc(Cl)cc1-c1noc(CCC#Cc2ccccn2)n1 [Example 60, 2-(4-(3-(5-Chloro-2-methylphenyl)-1,2,4-oxadiazol-5-yl)but-1-ynyl)pyridine]
[1]
  IC50: < 10 µM
other
  melting point: 66 to 68 °C

## Fc1cc(F)c2oc(CCC#Cc3ccccn3)nc2c1 [Example 89, 5,7-Difluoro-2-(4-(pyridin-2-yl)but-3-ynyl)benzo[d]oxazole]
[1]
  IC50: < 0.05 µM
other
  melting point: 93.5 to 94 °C

## Fc1cccc2oc(CCC#Cc3ccccn3)nc12 [Example 90, 4-Fluoro-2-(4-(pyridin-2-yl)but-3-ynyl)benzo[d]oxazole]
[1]
  IC50: < 0.05 µM
other
  melting point: 89 to 89.5 °C

## N#Cc1cccc2nc(CCC#Cc3ccccn3)oc12 [Example 92, 2-(4-(Pyridin-2-yl)but-3-ynyl)benzo[d]oxazole-7-carbonitrile]
[1]
  IC50: < 0.05 µM
other
  melting point: 126 to 126.5 °C

## Fc1ccc(Cl)c2oc(CCC#Cc3ccccn3)nc12 [Example 93, 7-Chloro-4-fluoro-2-(4-(pyridin-2-yl)but-3-ynyl)benzo[d]oxazole]
[1]
  IC50: < 0.05 µM
other
  melting point: 102 to 103 °C

## O=c1n(CCC#Cc2cccc(CF)n2)nc2ccccn12 [Example 120, 2-(4-(6-(Fluoromethyl)pyridin-2-yl)but-3-ynyl)-[1,2,4]triazolo[4,3-a]pyridin-3(2H)-one]
[1]
  IC50: < 10 µM
other
  melting point: 106 to 107 °C

## FCc1cccc(C#CCCc2ccc3ccccc3n2)n1 [Example 126, 2-(4-(6-(Fluoromethyl)pyridin-2-yl)but-3-ynyl)quinoline]
[1]
  IC50: < 0.05 µM
other
  melting point: 70.2 to 74.3 °C

## FCc1cccc(C#CCCc2cnc3ccccc3n2)n1 [Example 129, 2-(4-(6-(Fluoromethyl)pyridin-2-yl)but-3-ynyl)quinoxaline]
[1]
  IC50: < 0.05 µM
other
  melting point: 136 °C (dec.)

## Cl.FCc1cccc(C#CCCn2nc3cc(F)cc(F)c3n2)n1 [Example 131, 4,6-Difluoro-2-(4-(6-(fluoromethyl)pyridin-2-yl)but-3-ynyl)-2H-benzo[d][1,2,3]triazole hydrochloride]
[1]
  IC50: < 0.05 µM
other
  melting point: 128 to 130 °C

## Cl.FCc1cccc(C#CCCn2nc3ccc(F)c(F)c3n2)n1 [Example 132, 4,5-Difluoro-2-(4-(6-(fluoromethyl)pyridin-2-yl)but-3-ynyl)-2H-benzo[d][1,2,3]triazole hydrochloride]
[1]
  IC50: < 0.05 µM
other
  melting point: 157 to 159 °C

## FC(F)c1cccc(C#CCCn2nc3ccccc3n2)n1 [Example 134, 2-(4-(6-(Difluoromethyl)pyridin-2-yl)but-3-ynyl)-2H-benzo[d][1,2,3]triazole]
[1]
  IC50: < 10 µM
other
  melting point: 101.8 to 102.9 °C

## FCc1cccc(C#CCCc2cnc3cc(F)c(F)cc3n2)n1 [Example 148, 6,7-Difluoro-2-(4-(6-(fluoromethyl)pyridin-2-yl)but-3-ynyl)quinoxaline]
[1]
  IC50: < 10 µM
other
  melting point: 134.9 to 138.5 °C

## Fc1cc2nn(CCC#Cc3ccccn3)nc2cc1F [Example 153, 5,6-Difluoro-2-(4-(pyridin-2-yl)but-3-ynyl)-2H-benzo[d][1,2,3]triazole]
[1]
  IC50: < 10 µM
other
  melting point: 131 to 132 °C

## FCc1cccc(C#CCCn2nc3cc(F)c(F)cc3n2)n1 [Example 154, 5,6-Difluoro-2-(4-(6-(fluoromethyl)pyridin-2-yl)but-3-ynyl)-2H-benzo[d][1,2,3]triazole]
[1]
  IC50: < 10 µM
other
  melting point: 104 to 105 °C

## CNc1cccc(C#CCCn2nc3ccccc3n2)n1 [Example 167, 6-(4-(2H-Benzo[d][1,2,3]triazol-2-yl)but-1-ynyl)-N-methylpyridin-2-amine]
[1]
  IC50: < 0.5 µM
other
  melting point: 150 to 154 °C

## Fc1ccc(-c2cc(CCC#Cc3ccccn3)on2)cc1 [Example 168, 2-(4-(3-(4-Fluorophenyl)isoxazol-5-yl)but-1-ynyl)pyridine]
[1]
  IC50: < 10 µM
other
  melting point: 83 to 84 °C

## CC(=O)Nc1cccc(C#CCCn2nc3ccccc3n2)n1 [Example 169, N-(6-(4-(2H-Benzo[d][1,2,3]triazol-2-yl)but-1-ynyl)pyridin-2-yl)acetamide]
[1]
  IC50: < 10 µM
other
  melting point: 93 to 94 °C

## CCNc1cccc(C#CCCn2nc3ccccc3n2)n1 [Example 170, 6-(4-(2H-Benzo[d][1,2,3]triazol-2-yl)but-1-ynyl)-N-ethylpyridin-2-amine]
[1]
  IC50: < 10 µM
other
  melting point: 73 to 78 °C

## Fc1ccc(-c2cn(CCC#Cc3ccccn3)nn2)cc1 [Example 179, 2-(4-(4-(4-Fluorophenyl)-1H-1,2,3-triazol-1-yl)but-1-ynyl)pyridine]
[1]
  IC50: < 0.5 µM
other
  melting point: 120 to 122 °C

## O=c1c2ccccc2ccn1CCC#Cc1ccccn1 [Example 183, 2-(4-(Pyridin-2-yl)but-3-ynyl)isoquinolin-1(2H)-one]
[1]
  IC50: < 0.5 µM
other
  melting point: 85 to 90 °C

## O=C(CCC#Cc1ccccn1)Nc1ccccc1F [Example 186, N-(2-Fluorophenyl)-5-(pyridin-2-yl)pent-4-ynamide]
[1]
  IC50: < 10 µM
other
  melting point: 82 to 84 °C

## O=C(CCC#Cc1ccccn1)Nc1cccc(F)c1 [Example 187, N-(3-Fluorophenyl)-5-(pyridin-2-yl)pent-4-ynamide]
[1]
  IC50: < 10 µM
other
  melting point: 110 to 114 °C

## Cc1cc(F)ccc1NC(=O)CCC#Cc1ccccn1 [Example 188, N-(4-Fluoro-2-methyl-phenyl)-5-(pyridin-2-yl)pent-4-ynamide]
[1]
  IC50: < 10 µM
other
  melting point: 110 to 114 °C

## Cn1c(CCC#Cc2cccc(CF)n2)nc2ccccc21 [Example 190, 2-(4-(6-(Fluoromethyl)pyridin-2-yl)but-3-ynyl)-1-methyl-1H-benzo[d]imidazole]
[1]
  IC50: < 0.5 µM
other
  melting point: 95.3 to 96.3 °C

## Cn1c(CCC#Cc2cccc(CF)n2)nc2c(F)cc(F)cc21 [Example 193, 4,6-Difluoro-2-(4-(6-(fluoromethyl)pyridin-2-yl)but-3-ynyl)-1-methyl-1H-benzo[d]imidazole]
[1]
  IC50: < 0.5 µM
other
  melting point: 103 to 104 °C

## Cc1nc(C#CCCn2nc3ccccc3n2)sc1C [Example 222, 2-(4-(4,5-Dimethylthiazol-2-yl)but-3-ynyl)-2H-benzo[d][1,2,3]triazole]
[1]
  IC50: < 10 µM
other
  melting point: 96 to 98 °C

## FCc1cccc(C#CCCc2cn3cc(F)ccc3n2)n1 [Example 223, 6-Fluoro-2-(4-(6-(fluoromethyl)pyridin-2-yl)but-3-ynyl)H-imidazo[1,2-a]pyridine]
[1]
  IC50: < 0.5 µM
other
  melting point: 140 to 141.8 °C

## FCc1nc(C#CCCc2cn3cc(F)ccc3n2)cs1 [Example 224, 6-Fluoro-2-(4-(2-(fluoromethyl)thiazol-4-yl)but-3-ynyl)-imidazo[1,2-a]pyridine]
[1]
  IC50: < 0.05 µM
other
  melting point: 82 to 84 °C

## FCc1cccc(C#CCCc2cn3cccc(OCc4ccccc4)c3n2)n1 [Example 226, 8-(Benzyloxy)-2-(4-(6-(fluoromethyl)pyridin-2-yl)but-3-ynyl)-imidazo[1,2-a]pyridine]
[1]
  IC50: < 10 µM
other
  melting point: 92 to 94 °C

## Fc1cc(F)c2nc(CCC#Cc3ccccn3)cn2c1 [Example 228, 6,8-Difluoro-2-(4-(pyridin-2-yl)but-3-ynyl)-imidazo[1,2-a]pyridine]
[1]
  IC50: < 0.05 µM
other
  melting point: 130 to 131 °C

## Fc1cccnc1C#CCCc1nc2ccccc2o1 [Example 230]
[1]
  IC50: < 10 µM
other
  melting point: 86 to 88 °C

## Cc1nc(C#CCCc2nc3ccccc3o2)c[nH]1 [Example 231, 2-(4-(2-Methyl-1H-imidazol-4-yl)but-3-ynyl)benzo[d]oxazole]
[1]
  IC50: < 10 µM
other
  melting point: 152 to 154 °C

## O=C(CCC#Cc1cccc(CF)n1)Nc1ccc(F)cc1 [Example 232, 5-(6-(Fluoromethyl)pyridin-2-yl)-N-(4-fluorophenyl)pent-4-ynamide]
[1]
  IC50: < 10 µM
other
  melting point: 110 °C

## Cc1nc(C#CCCc2nc3ccccc3o2)cn1C [Example 233, 2-(4-(1,2-Dimethyl-1H-imidazol-4-yl)but-3-ynyl)benzo[d]oxazole]
[1]
  IC50: < 10 µM
other
  melting point: 117 to 119 °C

## O=C1c2ccccc2CN1CCC#Cc1ccccn1 [Example 234, 2-(4-(Pyridin-2-yl)but-3-ynyl)isoindolin-1-one]
[1]
  IC50: < 10 µM
other
  melting point: 94 to 98 °C

## FCc1cccc(C#CCCc2nc3ccccc3s2)n1 [Example 241, 2-(4-(6-(Fluoromethyl)pyridin-2-yl)but-3-ynyl)benzo[d]thiazole]
[1]
  IC50: < 0.05 µM
other
  melting point: 74 to 76 °C

## O=C1c2ccccc2C(=O)N1CCCC#Cc1ccccn1 [Example 242, 2-(5-(Pyridin-2-yl)pent-4-ynyl)isoindoline-1,3-dione]
[1]
  IC50: < 10 µM
other
  melting point: 127 to 129 °C

## O=C(CCC#Cc1ccccn1)Nc1ccc(Cl)cc1 [Example 244, N-(4-Chlorophenyl)-5-(pyridin-2-yl)pent-4-ynamide]
[1]
  IC50: < 10 µM
other
  melting point: 110 to 111 °C

## O=C(CCC#Cc1ccccn1)Nc1cccc(Cl)c1 [Example 245, N-(3-Chlorophenyl)-5-(pyridin-2-yl)pent-4-ynamide]
[1]
  IC50: < 10 µM
other
  melting point: 167.8 to 168.8 °C

## O=C(CCC#Cc1ccccn1)Nc1ccc(F)cc1F [Example 246, N-(2,4-Difluorophenyl)-5-(pyridin-2-yl)pent-4-ynamide]
[1]
  IC50: < 10 µM
other
  melting point: 132 to 133.2 °C

## Fc1ccc(-c2cnn(CCC#Cc3ccccn3)n2)cc1 [Example 249, 2-(4-(4-(4-Fluorophenyl)-2H-1,2,3-triazol-2-yl)but-1-ynyl)pyridine]
[1]
  IC50: < 10 µM
other
  melting point: 83.5 to 84.5 °C
